The results in this text go back to PMC6120666 (The EMBO Journal, 2018).

What all share (assay): Drug affinity chromatography with c-ponatinib and LC-MS/MS (ponatinib interactome)
Common to all, as to type: binding

Test [1] concerns the target T1, proteins of U2OS cell lysate (Homo sapiens, UniProt O43318).
T1 construct: Proteins enriched by c-ponatinib from U2OS cell lysate; endogenous in cells; host or cells: U2OS cell lysate
The settings on record: MAP3K7;DKFZp586F0420, Mitogen-activated protein kinase kinase kinase 7. The procedure, abridged:
(§1)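 Proteins were identified by nano-UPLC–MS/MS after elution with formic acid and trypsin digestion. They were captured from U2OS lysate (2 mg protein per pulldown, NP-40 buffer) on amine-coupled NHS beads during a 2 h incubation at 4 °C.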

Test [2] deals with T2, proteins of U2OS cell lysate (Homo sapiens, UniProt O75821).
T2 construct: Proteins enriched by c-ponatinib from U2OS cell lysate; endogenous in cells; host or cells: U2OS cell lysate
The settings on record: EIF3G, Eukaryotic translation initiation factor 3 subunit G. In outline: as §1

Test [3] addresses T3, proteins of U2OS cell lysate (Homo sapiens, UniProt P04843).
T3 construct: Proteins enriched by c-ponatinib from U2OS cell lysate; endogenous in cells; host or cells: U2OS cell lysate
The settings on record: RPN1, Dolichyl-diphosphooligosaccharide--protein glycosyltransferase subunit 1. The procedure, abridged:
as §1

The target of test [4] is T4, proteins of U2OS cell lysate (Homo sapiens, UniProt P11441).
T4 construct: Proteins enriched by c-ponatinib from U2OS cell lysate; endogenous in cells; host or cells: U2OS cell lysate
The settings on record: UBL4A, Ubiquitin-like protein 4A. In outline: as §1

Test [5] addresses T5, proteins of U2OS cell lysate (Homo sapiens, UniProt P27707).
T5 construct: Proteins enriched by c-ponatinib from U2OS cell lysate; endogenous in cells; host or cells: U2OS cell lysate
The settings on record: DCK, Deoxycytidine kinase. The procedure, abridged: as §1

Test [6] has as its target T6, proteins of U2OS cell lysate (Homo sapiens, UniProt P28066).
T6 construct: Proteins enriched by c-ponatinib from U2OS cell lysate; endogenous in cells; host or cells: U2OS cell lysate
The settings on record: PSMA5, Proteasome subunit alpha type-5. The procedure, abridged:
as §1

Test [7] has as its target T7, proteins of U2OS cell lysate (Homo sapiens, UniProt P35232).
T7 construct: Proteins enriched by c-ponatinib from U2OS cell lysate; endogenous in cells; host or cells: U2OS cell lysate
The settings on record: PHB, Prohibitin. The procedure, abridged:
as §1

The target in test [8] is T8, proteins of U2OS cell lysate (Homo sapiens, UniProt P38646).
T8 construct: Proteins enriched by c-ponatinib from U2OS cell lysate; endogenous in cells; host or cells: U2OS cell lysate
The settings on record: HSPA9, Stress-70 protein, mitochondrial. The procedure, abridged:
as §1

Test [9] deals with T9, proteins of U2OS cell lysate (Homo sapiens, UniProt P47914).
T9 construct: Proteins enriched by c-ponatinib from U2OS cell lysate; endogenous in cells; host or cells: U2OS cell lysate
The settings on record: RPL29, 60S ribosomal protein L29. In outline: as §1

In test [10] the target is T10, proteins of U2OS cell lysate (Homo sapiens, UniProt P54753).
T10 construct: Proteins enriched by c-ponatinib from U2OS cell lysate; endogenous in cells; host or cells: U2OS cell lysate
The settings on record: EPHB3, Ephrin type-B receptor 3. In outline: as §1

In test [11] the target is T11, proteins of U2OS cell lysate (Homo sapiens, UniProt P55060).
T11 construct: Proteins enriched by c-ponatinib from U2OS cell lysate; endogenous in cells; host or cells: U2OS cell lysate
The settings on record: CSE1L, Exportin-2. In outline: as §1

The target in test [12] is T12, proteins of U2OS cell lysate (Homo sapiens, UniProt P61981).
T12 construct: Proteins enriched by c-ponatinib from U2OS cell lysate; endogenous in cells; host or cells: U2OS cell lysate
The settings on record: YWHAG, 14-3-3 protein gamma. In outline:
as §1

Test [13] deals with T13, proteins of U2OS cell lysate (Homo sapiens, UniProt P62854).
T13 construct: Proteins enriched by c-ponatinib from U2OS cell lysate; endogenous in cells; host or cells: U2OS cell lysate
The settings on record: RPS26;RPS26P11, 40S ribosomal protein S26. In outline: as §1

Test [14] concerns the target T14, proteins of U2OS cell lysate (Homo sapiens, UniProt Q0ZGT2).
T14 construct: Proteins enriched by c-ponatinib from U2OS cell lysate; endogenous in cells; host or cells: U2OS cell lysate
The settings on record: NEXN, Nexilin. In outline:
as §1

Test [15] has as its target T15, proteins of U2OS cell lysate (Homo sapiens, UniProt Q13428).
T15 construct: Proteins enriched by c-ponatinib from U2OS cell lysate; endogenous in cells; host or cells: U2OS cell lysate
The settings on record: TCOF1, Treacle protein. The procedure, abridged:
as §1

In test [16] the target is T16, proteins of U2OS cell lysate (Homo sapiens, UniProt Q92973).
T16 construct: Proteins enriched by c-ponatinib from U2OS cell lysate; endogenous in cells; host or cells: U2OS cell lysate
The settings on record: TNPO1, Transportin-1. In outline: as §1

For test [17], the target named is T17, proteins of U2OS cell lysate (Homo sapiens, UniProt Q9BSJ8).
T17 construct: Proteins enriched by c-ponatinib from U2OS cell lysate; endogenous in cells; host or cells: U2OS cell lysate
The settings on record: ESYT1, Extended synaptotagmin-1. The procedure, abridged:
as §1

Test [18] deals with T18, proteins of U2OS cell lysate (Homo sapiens, UniProt Q9UFG5).
T18 construct: Proteins enriched by c-ponatinib from U2OS cell lysate; endogenous in cells; host or cells: U2OS cell lysate
The settings on record: C19orf25, UPF0449 protein C19orf25. The procedure, abridged:
as §1

For test [19], the target named is T19, proteins of U2OS cell lysate (Homo sapiens, UniProt Q9UJZ1).
T19 construct: Proteins enriched by c-ponatinib from U2OS cell lysate; endogenous in cells; host or cells: U2OS cell lysate
The settings on record: STOML2, Stomatin-like protein 2, mitochondrial. In outline:
as §1

T4 sequence (P11441 whole entry): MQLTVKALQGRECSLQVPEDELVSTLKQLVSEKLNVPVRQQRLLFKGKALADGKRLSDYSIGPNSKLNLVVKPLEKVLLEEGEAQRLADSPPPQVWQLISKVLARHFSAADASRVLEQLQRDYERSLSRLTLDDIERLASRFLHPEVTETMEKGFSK
T5 sequence (P27707 whole entry): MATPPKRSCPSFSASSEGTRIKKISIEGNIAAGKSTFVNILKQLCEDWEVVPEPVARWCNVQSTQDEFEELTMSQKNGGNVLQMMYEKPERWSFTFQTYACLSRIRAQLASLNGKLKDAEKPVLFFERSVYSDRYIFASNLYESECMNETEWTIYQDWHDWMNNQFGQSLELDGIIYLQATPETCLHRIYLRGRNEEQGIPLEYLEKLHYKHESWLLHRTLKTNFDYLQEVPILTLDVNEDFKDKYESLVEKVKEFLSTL
T7 sequence (P35232 whole entry): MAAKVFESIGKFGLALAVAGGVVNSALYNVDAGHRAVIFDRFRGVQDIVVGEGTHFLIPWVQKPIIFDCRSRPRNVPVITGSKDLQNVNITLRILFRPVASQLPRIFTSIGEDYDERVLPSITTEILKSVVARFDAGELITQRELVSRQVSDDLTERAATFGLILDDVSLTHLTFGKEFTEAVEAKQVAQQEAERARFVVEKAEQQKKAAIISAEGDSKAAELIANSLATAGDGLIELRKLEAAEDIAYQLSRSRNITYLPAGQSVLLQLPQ
T16 sequence (Q92973 whole entry): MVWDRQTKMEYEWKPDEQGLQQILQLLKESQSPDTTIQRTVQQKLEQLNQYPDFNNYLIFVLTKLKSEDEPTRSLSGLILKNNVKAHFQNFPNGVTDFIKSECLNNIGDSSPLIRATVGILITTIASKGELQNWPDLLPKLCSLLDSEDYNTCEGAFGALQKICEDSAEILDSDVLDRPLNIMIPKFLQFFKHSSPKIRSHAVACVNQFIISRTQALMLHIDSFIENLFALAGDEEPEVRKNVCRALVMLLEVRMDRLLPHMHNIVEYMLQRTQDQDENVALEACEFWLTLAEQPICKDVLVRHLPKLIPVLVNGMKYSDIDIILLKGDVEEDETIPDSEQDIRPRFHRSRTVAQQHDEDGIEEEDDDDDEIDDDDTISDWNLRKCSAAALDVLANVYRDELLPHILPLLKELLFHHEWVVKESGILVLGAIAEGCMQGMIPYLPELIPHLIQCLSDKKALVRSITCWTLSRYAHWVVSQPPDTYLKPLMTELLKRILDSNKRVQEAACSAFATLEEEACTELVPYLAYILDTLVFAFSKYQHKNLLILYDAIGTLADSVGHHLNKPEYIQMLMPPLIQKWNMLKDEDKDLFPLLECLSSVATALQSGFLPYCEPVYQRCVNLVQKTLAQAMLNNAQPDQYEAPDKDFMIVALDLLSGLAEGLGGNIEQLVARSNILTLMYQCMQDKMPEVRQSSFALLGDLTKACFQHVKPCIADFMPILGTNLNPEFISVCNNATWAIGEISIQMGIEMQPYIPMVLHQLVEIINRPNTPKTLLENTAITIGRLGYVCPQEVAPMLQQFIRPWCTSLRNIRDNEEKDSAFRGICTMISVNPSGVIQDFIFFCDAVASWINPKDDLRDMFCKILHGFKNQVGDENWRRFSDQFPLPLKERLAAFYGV
T15 sequence (Q13428 whole entry): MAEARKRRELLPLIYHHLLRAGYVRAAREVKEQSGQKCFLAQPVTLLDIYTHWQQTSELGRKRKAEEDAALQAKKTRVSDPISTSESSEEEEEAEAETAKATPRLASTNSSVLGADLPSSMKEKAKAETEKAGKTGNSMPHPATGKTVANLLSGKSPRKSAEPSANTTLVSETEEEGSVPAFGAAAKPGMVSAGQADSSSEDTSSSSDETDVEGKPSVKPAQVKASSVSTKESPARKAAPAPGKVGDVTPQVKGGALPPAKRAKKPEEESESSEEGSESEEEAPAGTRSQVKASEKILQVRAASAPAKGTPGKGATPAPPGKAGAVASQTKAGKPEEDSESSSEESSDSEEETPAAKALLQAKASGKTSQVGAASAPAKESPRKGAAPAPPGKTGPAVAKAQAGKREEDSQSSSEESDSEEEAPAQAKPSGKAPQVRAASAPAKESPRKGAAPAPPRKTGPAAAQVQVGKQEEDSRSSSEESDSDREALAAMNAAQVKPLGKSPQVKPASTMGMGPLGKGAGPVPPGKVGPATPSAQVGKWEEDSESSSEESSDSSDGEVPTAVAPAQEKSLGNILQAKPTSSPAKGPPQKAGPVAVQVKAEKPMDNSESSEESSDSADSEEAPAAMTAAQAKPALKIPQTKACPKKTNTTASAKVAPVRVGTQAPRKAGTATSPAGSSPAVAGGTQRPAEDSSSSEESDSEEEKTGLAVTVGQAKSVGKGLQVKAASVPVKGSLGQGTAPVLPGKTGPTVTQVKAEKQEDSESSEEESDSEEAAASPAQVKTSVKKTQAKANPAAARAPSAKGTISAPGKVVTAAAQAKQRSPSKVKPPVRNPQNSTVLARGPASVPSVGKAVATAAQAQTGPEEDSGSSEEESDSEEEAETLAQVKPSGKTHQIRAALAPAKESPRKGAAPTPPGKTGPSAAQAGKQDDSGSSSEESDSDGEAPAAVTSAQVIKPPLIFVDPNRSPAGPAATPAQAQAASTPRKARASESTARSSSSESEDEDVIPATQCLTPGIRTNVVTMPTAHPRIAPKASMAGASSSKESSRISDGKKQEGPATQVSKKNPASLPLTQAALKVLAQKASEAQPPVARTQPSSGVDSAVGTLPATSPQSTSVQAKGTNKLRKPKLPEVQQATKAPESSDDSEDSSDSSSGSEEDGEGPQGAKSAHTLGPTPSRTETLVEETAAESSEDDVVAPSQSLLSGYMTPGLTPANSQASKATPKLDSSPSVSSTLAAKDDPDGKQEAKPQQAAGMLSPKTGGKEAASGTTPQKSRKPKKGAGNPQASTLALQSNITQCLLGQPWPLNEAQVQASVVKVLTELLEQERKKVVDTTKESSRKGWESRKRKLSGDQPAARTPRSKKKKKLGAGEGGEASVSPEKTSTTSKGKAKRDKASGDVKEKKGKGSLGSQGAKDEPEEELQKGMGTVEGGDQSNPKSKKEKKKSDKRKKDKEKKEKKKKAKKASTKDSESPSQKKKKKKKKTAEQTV
T6 sequence (P28066 whole entry): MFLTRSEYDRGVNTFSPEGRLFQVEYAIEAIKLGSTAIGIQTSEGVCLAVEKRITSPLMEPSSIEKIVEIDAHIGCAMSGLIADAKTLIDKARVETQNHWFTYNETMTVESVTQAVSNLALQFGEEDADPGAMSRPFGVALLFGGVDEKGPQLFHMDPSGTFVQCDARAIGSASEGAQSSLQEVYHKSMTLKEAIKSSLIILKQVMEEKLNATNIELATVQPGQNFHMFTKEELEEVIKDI
T1 sequence (O43318 whole entry): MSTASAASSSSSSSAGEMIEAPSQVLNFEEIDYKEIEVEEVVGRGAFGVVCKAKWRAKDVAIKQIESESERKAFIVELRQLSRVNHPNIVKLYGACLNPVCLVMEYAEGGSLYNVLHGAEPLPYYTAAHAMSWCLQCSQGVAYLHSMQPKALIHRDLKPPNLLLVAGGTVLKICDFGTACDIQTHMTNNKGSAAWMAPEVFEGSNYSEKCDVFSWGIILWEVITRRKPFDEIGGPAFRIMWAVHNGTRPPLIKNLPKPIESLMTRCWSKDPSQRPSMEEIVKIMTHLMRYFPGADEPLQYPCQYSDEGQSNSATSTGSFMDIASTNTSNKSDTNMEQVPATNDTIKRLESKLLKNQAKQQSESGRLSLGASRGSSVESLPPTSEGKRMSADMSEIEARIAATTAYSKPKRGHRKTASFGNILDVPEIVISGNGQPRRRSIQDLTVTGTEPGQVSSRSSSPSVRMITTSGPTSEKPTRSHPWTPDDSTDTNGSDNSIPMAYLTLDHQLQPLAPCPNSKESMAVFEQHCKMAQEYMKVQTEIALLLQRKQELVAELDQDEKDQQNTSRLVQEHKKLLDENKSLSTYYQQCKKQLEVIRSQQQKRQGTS
T8 sequence (P38646 47-679): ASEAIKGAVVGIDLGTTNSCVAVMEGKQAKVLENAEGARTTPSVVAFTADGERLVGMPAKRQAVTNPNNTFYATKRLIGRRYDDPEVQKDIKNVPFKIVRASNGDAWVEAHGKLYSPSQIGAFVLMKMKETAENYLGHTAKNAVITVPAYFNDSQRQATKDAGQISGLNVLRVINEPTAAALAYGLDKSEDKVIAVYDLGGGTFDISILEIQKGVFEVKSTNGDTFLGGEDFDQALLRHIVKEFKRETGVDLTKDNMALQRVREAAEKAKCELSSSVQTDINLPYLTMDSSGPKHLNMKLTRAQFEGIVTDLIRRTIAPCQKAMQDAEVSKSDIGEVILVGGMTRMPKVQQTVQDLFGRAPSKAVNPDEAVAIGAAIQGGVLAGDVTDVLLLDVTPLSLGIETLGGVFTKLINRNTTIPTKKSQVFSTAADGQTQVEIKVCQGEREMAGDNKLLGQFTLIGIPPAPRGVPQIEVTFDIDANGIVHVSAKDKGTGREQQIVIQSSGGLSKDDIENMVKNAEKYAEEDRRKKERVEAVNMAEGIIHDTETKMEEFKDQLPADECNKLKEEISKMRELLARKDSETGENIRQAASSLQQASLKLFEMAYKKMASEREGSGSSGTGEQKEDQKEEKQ
T2 sequence (O75821 whole entry): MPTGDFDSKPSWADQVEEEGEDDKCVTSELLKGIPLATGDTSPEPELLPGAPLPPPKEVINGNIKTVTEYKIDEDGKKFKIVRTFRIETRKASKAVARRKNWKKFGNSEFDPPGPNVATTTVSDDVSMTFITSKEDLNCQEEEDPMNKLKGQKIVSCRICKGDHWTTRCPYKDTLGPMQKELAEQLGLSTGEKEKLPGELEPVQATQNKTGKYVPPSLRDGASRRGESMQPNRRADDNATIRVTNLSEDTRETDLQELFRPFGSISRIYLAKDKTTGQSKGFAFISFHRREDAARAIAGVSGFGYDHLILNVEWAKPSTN
T18 sequence (Q9UFG5 whole entry): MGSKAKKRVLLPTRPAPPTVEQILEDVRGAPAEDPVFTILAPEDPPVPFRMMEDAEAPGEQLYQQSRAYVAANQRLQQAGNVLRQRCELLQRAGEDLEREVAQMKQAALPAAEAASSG

As for `Cc1ccc(C(=O)Nc2ccc(CN3CCN(C)CC3)c(C(F)(F)F)c2)cc1C#Cc1cnc2cccnn12` [PON], the “Average LFQ PON_WT” value in [1] is 25.3656; in [2], 21.2492; in test [3], 23.8993; in test [4], 20.3097; in test [5], 29.7769; in [6], 20.0873. Also, the “Average LFQ PON_WT” value in test [7] worked out at 29.1615; in [8], 24.6608; in test [9], 19.934; in test [10] it was 21.3076; in test [11], 25.3839; in test [12], 23.8341. For the same compound, the “Average LFQ PON_WT” value is on record as 21.6239 in [13]; 20.2843 in test [14]; 20.5654 in test [15]; 24.7772 in [16]; 18.8901 in test [17]; 20.1092 in test [18]. For the same compound, the “Average LFQ PON_WT” value in test [19] turned out to be 26.1635.
